Results published in patent US6992102B2, “Bicyclic modulators of androgen receptor function” (Bristol-Myers Squibb Company, priority 2001, dated 2006).

Target: T1, AR (Rattus norvegicus, UniProt P15207)
T1 sequence (P15207 1-902): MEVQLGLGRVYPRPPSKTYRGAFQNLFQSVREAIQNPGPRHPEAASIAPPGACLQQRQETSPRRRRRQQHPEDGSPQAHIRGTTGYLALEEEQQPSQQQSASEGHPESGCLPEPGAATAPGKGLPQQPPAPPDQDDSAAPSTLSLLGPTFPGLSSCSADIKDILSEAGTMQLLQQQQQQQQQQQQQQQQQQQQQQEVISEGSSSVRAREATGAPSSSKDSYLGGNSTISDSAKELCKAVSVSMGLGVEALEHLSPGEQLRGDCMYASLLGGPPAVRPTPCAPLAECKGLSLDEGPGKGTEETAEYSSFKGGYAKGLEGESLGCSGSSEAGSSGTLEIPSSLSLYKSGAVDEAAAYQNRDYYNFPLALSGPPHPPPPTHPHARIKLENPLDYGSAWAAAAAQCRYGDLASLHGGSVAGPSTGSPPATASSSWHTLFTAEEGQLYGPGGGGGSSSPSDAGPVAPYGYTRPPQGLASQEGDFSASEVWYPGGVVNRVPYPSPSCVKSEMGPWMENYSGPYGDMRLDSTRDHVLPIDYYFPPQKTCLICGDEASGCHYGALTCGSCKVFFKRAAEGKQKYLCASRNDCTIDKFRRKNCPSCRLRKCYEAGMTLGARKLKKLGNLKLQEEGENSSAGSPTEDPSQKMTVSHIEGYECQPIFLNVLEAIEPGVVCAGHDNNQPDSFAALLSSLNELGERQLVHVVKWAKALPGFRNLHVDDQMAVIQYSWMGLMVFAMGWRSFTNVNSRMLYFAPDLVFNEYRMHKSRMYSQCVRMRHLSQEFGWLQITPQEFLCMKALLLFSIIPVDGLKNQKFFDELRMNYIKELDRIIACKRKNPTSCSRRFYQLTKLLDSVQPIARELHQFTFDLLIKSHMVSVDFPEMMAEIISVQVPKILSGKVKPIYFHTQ
Details: immature castrated rats
Description: The activity of compounds of the present invention as AR agonists was investigated in an immature male rat model, a recognized test of anabolic effects in muscle and sustaining effects in sex organs for a given compound, as described in L. G. Hershberger et al., Proc. Soc. […] Biol. Med., 83, 175 (1953); B. L. Beyler et al, “Methods for evaluating anabolic and catabolic agents in laboratory animals”, J. Amer. Med. Women's Ass., 23, 708 (1968); H. Fukuda et al., “Investigations of the levator ani muscle as an anabolic steroid assay”, Nago Dai. Yak. Ken. Nem. 14, 84 (1966) the disclosures of which are herein incorporated by reference.
The basis of this assay lies in the well-defined action of androgenic agents on the maintenance and growth of muscle tissues and sexual accessory organs in animals and man. […] J. Anat. […] Ital. Biol. Sper. […] II. […] Ital. Biol. Sper. 42, 1600 (1966); A. Boris et al., Steroids 15, 61 (1970). As described above, the effects of androgens on maintenance of male sexual accessory organs, such as the prostate and seminal vesicles, is well described. Castration results in rapid involution and atrophy of the prostate and seminal vesicles. This effect can be reversed by exogenous addition of androgens. […]
For CCC(=O)O[C@H]1CC[C@H]2[C@@H]3CCC4=CC(=O)CC[C@]4(C)[C@H]3CC[C@]12C [TP, testosterone propionate], the “EC50 (organ weight increase)” value was about 0.03 mg.

Same assay, conditions: organ weight increase, castrated rats
With CCC(=O)O[C@H]1CC[C@H]2[C@@H]3CCC4=CC(=O)CC[C@]4(C)[C@H]3CC[C@]12C [TP, testosterone propionate] the “potency relative to free T” value was 10–30 fold.

Target: endogenous glucocorticoid receptor (Homo sapiens, UniProt P04150)
Sequence (P04150 whole entry): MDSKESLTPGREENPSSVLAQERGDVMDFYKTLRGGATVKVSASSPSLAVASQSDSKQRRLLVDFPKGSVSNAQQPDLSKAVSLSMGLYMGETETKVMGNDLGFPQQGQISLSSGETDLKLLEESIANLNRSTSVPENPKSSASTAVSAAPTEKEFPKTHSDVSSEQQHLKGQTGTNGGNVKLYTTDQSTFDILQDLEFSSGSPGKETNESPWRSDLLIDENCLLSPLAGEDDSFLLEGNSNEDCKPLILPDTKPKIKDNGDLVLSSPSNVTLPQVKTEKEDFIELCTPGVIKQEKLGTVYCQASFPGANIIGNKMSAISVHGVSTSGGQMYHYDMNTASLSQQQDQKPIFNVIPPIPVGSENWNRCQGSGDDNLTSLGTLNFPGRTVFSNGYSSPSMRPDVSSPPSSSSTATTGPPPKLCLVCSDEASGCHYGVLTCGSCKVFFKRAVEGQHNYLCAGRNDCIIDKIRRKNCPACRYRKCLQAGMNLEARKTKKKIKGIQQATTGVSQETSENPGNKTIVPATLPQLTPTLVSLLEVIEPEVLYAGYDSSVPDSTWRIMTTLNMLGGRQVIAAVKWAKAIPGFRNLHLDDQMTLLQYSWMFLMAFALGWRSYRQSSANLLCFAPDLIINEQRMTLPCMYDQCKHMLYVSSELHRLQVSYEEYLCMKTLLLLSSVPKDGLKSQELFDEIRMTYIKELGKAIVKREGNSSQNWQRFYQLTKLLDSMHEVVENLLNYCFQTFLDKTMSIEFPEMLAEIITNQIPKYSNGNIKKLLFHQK
Details: concentration ≦10 µM; A549 cells stimulated with 10 ng/ml PMA; versus buffer control
Procedure: A549 cells, which contain endogenous glucocorticoid receptor, were stably transfected with an AP-1 DNA binding site attached to the luciferase gene. […] Cells are plated the day before the assay at approximately 40000 cells/well. […] Activity is measured by analysis in a luminometer as compared to control experiments treated with buffer or dexamethasome.
For C[C@@H]1C[C@H]2[C@@H]3CCC4=CC(=O)C=C[C@]4(C)[C@@]3(F)[C@@H](O)C[C@]2(C)[C@@]1(O)C(=O)CO [dexamethasone], the “% inhibition of the reporter system (suppresses activity)” value was 65%.

Test system: not given
Details: not given
In the case of CC(=O)O[C@@H]1CCN2C(=O)N(c3ccc(C#N)c4ccccc34)C(=O)[C@H]12 (racemic), the melting point is reported as 105 °C.
With N#Cc1ccc(N2C(=O)[C@H]3[C@@H](O)CCCN3C2=O)c2ccccc12 the melting point was 244 °C.
Compound CC(C)(C)OC(=O)N1CCN2C(=O)N(c3ccc(C#N)c4ccccc34)C(=O)C2C1 (stereo not shown) has a melting point of 222 to 224 °C.
CO[C@H]1CCN2C(=O)N(c3ccc(C#N)c4ccccc34)C(=O)[C@@H]12 (racemic) showed a melting point of 185 to 186 °C.
In the case of Cl.N#Cc1ccc(N2C(=O)C3CNCCN3C2=O)c2ccccc12 (racemic), the melting point is reported as 200 °C.
Compound N#Cc1ccc(N2C(=O)[C@@H]3[C@H](O)[C@H](O)CN3C2=O)c2ccccc12 (stereo in doubt) has a melting point of 225 °C.
In the case of N#Cc1ccc(N2C(=O)C3=CCCN3C2=O)c2ccccc12, the melting point is reported as 230 to 232 °C.
C[C@@]12C(=O)N(c3ccc(C#N)c4ccccc34)C(=O)N1CC[C@@H]2O showed a melting point of 234 to 235 °C.
For C[C@]12C(=O)N(c3ccc(C#N)c4ccccc34)C(=O)N1CC[C@H]2O, the melting point was 232 to 234 °C.
In the case of CC(C)(C)[C@H]1N(c2ccc(C#N)c3ccccc23)C(=O)[C@@H]2C[C@@H](O)CN21, the melting point is reported as 155 to 157 °C.
For O=C1C2C[C@@H](OCc3ccccc3)CN2C(=O)N1c1ccc([N+](=O)[O-])c2ccccc12 (stereo partly shown), the melting point was 120 to 122 °C.
Compound N#Cc1ccc(N2C(=O)[C@@H]3[C@H](O)CCCN3C2=O)c2ccccc12 (racemic) has a melting point of 243 °C.
N#Cc1ccc(N2C[C@@H]3[C@H](O)CCN3C2=O)c2ccccc12 showed a melting point of 226 to 228 °C.
With O=C1[C@H]2[C@@H](O)CCN2C(=O)N1c1ccc(Br)c2ccccc12 (racemic) the melting point was 204 to 206 °C.
For N#Cc1ccc(N2CC3[C@@H](O)CCN3C2=O)c2ccccc12 (stereo partly shown), the melting point was 226 to 228 °C.
In the case of CS(=O)(=O)N1CCN2C(=O)N(c3ccc(C#N)c4ccccc34)C(=O)C2C1 (racemic), the melting point is reported as 207 to 216 °C.
Work on O=C1C2CCCCN2C(=O)N1c1ccc([N+](=O)[O-])c2ccccc12 (racemic) yielded a melting point of 190 to 192 °C.
Work on N#Cc1ccc(N2C(=O)[C@@H]3[C@H](O)CCN3C2=S)c2ccccc12 yielded a melting point of 215 to 216 °C.
N#Cc1ccc(N2C(=O)[C@H]3[C@@H](O)[C@@H](O)CN3C2=O)c2ccccc12 (stereo in doubt) showed a melting point of 246 °C.
